Test results: paper PMC10864275, “Binding kinetics drive G protein subtype selectivity at the β1-adrenergic receptor” (Nature Communications, 2024)

Molecular target: T1, β1AR-E signalling via Gs (Meleagris gallopavo, UniProt P07700, C116L/C358A/DEL244-271/F327A/F338A/M179L/M281A/M44L/M48L/R68S)
T1 construct: expressed in transfected cells; host or cells: HEK293T
Format: cell-based, turkey
Conditions: G protein not given
Excerpt: We next assessed G protein coupling using the TRUPATH BRET2 biosensor assay[46] (Supplementary Fig. 2c) expressed in HEK293T cells, allowing examination of signalling via the canonical coupling partner Gs. […] Therefore, the TRUPATH and ligand binding assays confirmed that reversal of the thermostabilising mutation increased receptor activity without impacting ligand affinity. Also, although less efficacious, the thermostabilised β1AR-W construct still retained functional G protein coupling.
For Gq, a constitutively active mutated version (R183Q) was used to increase the sensitivity for detection of Gq activation. After 24 h, cells were harvested and seeded onto PLL-coated white 96-well plates (Greiner Bio-One) at a density of 50,000 cells per well. […] The plate was then incubated for 10 min at room temperature in the dark.

T1 sequence (P07700 other isoform, or with tags, fused parts or gaps with the stated changes): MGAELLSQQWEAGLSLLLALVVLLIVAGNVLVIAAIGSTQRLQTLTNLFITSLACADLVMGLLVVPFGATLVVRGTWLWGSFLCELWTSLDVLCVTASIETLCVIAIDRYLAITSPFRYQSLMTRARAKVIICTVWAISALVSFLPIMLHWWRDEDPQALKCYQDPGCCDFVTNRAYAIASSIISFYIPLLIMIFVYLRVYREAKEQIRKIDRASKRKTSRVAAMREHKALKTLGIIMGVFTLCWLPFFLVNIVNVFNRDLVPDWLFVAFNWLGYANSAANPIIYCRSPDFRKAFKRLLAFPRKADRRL

Row | Structure (SMILES) | potency in TRUPATH assays relative to isoprenaline
1 | CC(C)(C)NCC(O)c1ccc(O)c(CO)c1 (centres unmarked) [Sal., salbutamol] | decreased potency
2 | O=C(NCCNCC(O)COc1ccc(O)cc1)N1CCOCC1 (centres unmarked) [Xam., xamoterol] | decreased potency
